Source: patent US20250154607A1, “ISOTHERMAL AMPLIFICATION OF PATHOGENS” (priority 2021, published 2025)

Assays:
RNase A [1] = target: T1, RNase A (Bos taurus, UniProt P61823); assay: RNase Alert assay of RNase A activity recovery after SDS/DTT pretreatment; format: biochemical; details: 2 ng RNase A, 2 minutes at 58° C.; 10 mM DTT and/or 0.2% SDS; then 4% βCD
T1 sequence (P61823 27-150): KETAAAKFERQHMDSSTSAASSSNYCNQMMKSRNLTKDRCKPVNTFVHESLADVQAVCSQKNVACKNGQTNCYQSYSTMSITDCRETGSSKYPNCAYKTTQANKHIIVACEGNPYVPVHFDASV
Method: 2 ng RNase A was incubated 2 minutes at 58° C. in […] solutions containing either 10 mM DTT+0.2% SDS (+), 0.2% SDS (triangle), 10 mM DTT (square), or neither (solid line) and then the RNase Alert assay was used to study the recovery of any RNase activity upon sequestration of SDS after dissolving lyophilized APA reagents without enzymes but containing RNase Alert substrate and protective agent (4% βCD) with continued incubation and fluorescence data collection at 58° C. In the presence of RNase activity, the RNase alert indicator substrate releases detectable fluorescence. […] FIG. 11A depicts recovery of RNase A activity after identical pretreatment without addition of βCD, in this case monitoring activity in […] of the solution by transfer to an RNase alert “wet” reaction format. […] Thus, as shown here, simultaneous treatment with ionic detergent and reducing agent is required for successful irreversible inactivation under the conditions described herein. […] Without being bound by any particular theory, this may be related to the impact of cyclodextrin and other APA additives on the refolding process. This example also provides further confirmation that the prior art and currently available methods (e.g, employing a reducing agent but no denaturant) are inadequate under these conditions, with an independent, commercially available RNase assay.

RNase A [2] = target: T1, RNase A; assay: Influenza B virus APA assay with RNase A in ELB (Elution/Lysis Buffer); format: biochemical; details: RNAse A 10 μg/ml; 2 minutes 58° C. in ELB with 0.2% SDS, without or with 10 mM DTT; β-CD 4% final
Method: FIGS. 12A-12B depict data related to RNase A inactivation in an influenza B assay like the one in Example 4, with DTT in ELB (Elution/Lysis Buffer). […] After incubation, lyophilized APA reagents co-incubated 2 minutes 58° C., containing β-CD (4% final) were dissolved with the heated solutions, and FAM fluorescence collected every 15 seconds to monitor APA. […] The inclusion of DTT enables unimpeded operation of this POC influenza detection system in a mock sample containing very high level of purified RNase A ([…]). Moreover, while currently available methods can only achieve irreversible ribonuclease inactivation at a maximum 200 ng/ml, the compositions and methods provided herein show utility with 10 μg/ml to accommodate potentially larger amounts in patient samples.

CCCCCCCCCCCCOS(=O)(=O)[O-].[Na+] [SDS, sodium dodecyl sulfate]
Recovery of RNase A activity after pretreatment, with βCD (RNase A [1]): virtually full recovery of enzyme activity | Influenza B virus APA performance in presence of RNAse A (RNase A [2]): recovery of inhibitory levels of RNAse A
